Test results from article PMC2885673, “Interaction of triosephosphate isomerase from the cell surface of Staphylococcus aureus and α-(1→3)-mannooligosaccharides derived from glucuronoxylomannan of Cryptococcus neoformans” (Microbiology, 2009).

Legend:
[1] = biological target: T1, triosephosphate isomerase (TPI) from S. aureus (Staphylococcus aureus, UniProt Q2G030); assay: SPR (Biacore […]), TPI immobilized, heterogeneous ligand-parallel reaction fit; type: binding; conditions: HBS-EP pH 7.4, 150 mM NaCl, 3 mM EDTA; second site of a two-site fit (stronger site)
T1 construct: gene tpiA; native, purified from LiCl surface protein extract; 253 amino acids (homology model); amine-coupled to CM5 chip for SPR
T1 sequence (Q2G030 whole entry): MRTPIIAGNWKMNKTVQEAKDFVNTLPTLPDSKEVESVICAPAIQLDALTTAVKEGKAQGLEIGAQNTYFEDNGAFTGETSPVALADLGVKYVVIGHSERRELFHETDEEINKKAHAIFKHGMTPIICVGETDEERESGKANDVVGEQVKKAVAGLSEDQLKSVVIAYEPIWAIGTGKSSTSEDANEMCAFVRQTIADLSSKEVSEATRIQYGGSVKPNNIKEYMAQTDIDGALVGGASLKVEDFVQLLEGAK

[2] = biological target: T1, triosephosphate isomerase (TPI) from S. aureus; assay: coupled NADH / glycerol-3-phosphate dehydrogenase assay, A340; type: biochemical; conditions: 0.45 mM DL-glyceraldehyde 3-phosphate; S. aureus surface protein extract per the assay description

SMILES | Heterogeneous ligand-parallel reaction / Kd2 [1] | inhibition of TPI activity at 100 μM [2]
OC[C@H]1O[C@H](O[C@H]2[C@H](O)[C@@H](CO)OC(O)[C@H]2O)[C@@H](O)[C@@H](O)[C@@H]1O (stereo partly shown) [M2, mannobiose] | 5.37 µM | –
OC[C@H]1O[C@H](O[C@@H]2[C@H](O)[C@@H](O[C@@H]3[C@H](O)[C@@H](O[C@@H]4[C@H](O)[C@@H](O[C@H]5[C@H](O)[C@@H](CO)OC(O)[C@H]5O)O[C@H](CO)[C@H]4O)O[C@H](CO)[C@H]3O)O[C@H](CO)[C@H]2O)[C@@H](O)[C@@H](O)[C@@H]1O (stereo partly shown) [M5, mannopentaose] | 18.6 µM | dose-dependent inhibition was observed with mannotriose, mannotetraose and mannopentaose
OC[C@H]1O[C@H](O[C@@H]2[C@H](O)[C@@H](O[C@H]3[C@H](O)[C@@H](CO)OC(O)[C@H]3O)O[C@H](CO)[C@H]2O)[C@@H](O)[C@@H](O)[C@@H]1O (stereo partly shown) [M3, mannotriose] | 124 µM | dose-dependent inhibition was observed with mannotriose, mannotetraose and mannopentaose
OC[C@H]1O[C@H](O[C@@H]2[C@H](O)[C@@H](O[C@@H]3[C@H](O)[C@@H](O[C@H]4[C@H](O)[C@@H](CO)OC(O)[C@H]4O)O[C@H](CO)[C@H]3O)O[C@H](CO)[C@H]2O)[C@@H](O)[C@@H](O)[C@@H]1O (stereo partly shown) [M4, mannotetraose] | 0.0146 µM | dose-dependent inhibition was observed with mannotriose, mannotetraose and mannopentaose
